Publication PMC5814047, “Peptidic inhibitors of insulin-degrading enzyme with potential for dermatological applications discovered via phage display” (PLoS ONE, 2018)
Several values for one entry are separate records, joined by “and”; a condition that tells them apart may be missing. Equal values may be shown once. Bridge positions count the residues as written; N and C are the ends. Peptide text beside a SMILES is read from it.

What was measured:
[1] = test system: COL1A1 mRNA in primary murine skin fibroblasts; assay: COL1A1 mRNA quantification by RT-PCR; assay type: cell-based
Protocol: (§1) Insulin promotes wound healing and overall skin health by affecting a number of processes, including cell proliferation, cell migration, and the production and secretion of ECM components, particularly type I collagen. We therefore assessed the ability of P12-3A to influence these processes in cultured skin fibroblasts and keratinocytes. To that end, primary mouse skin fibroblasts were grown for 4 d in multiple concentrations of insulin in the presence or absence of P12-3A, and insulin concentration over time was monitored by ELISA. […] Finally, the effects of P12-3A on collagen production in were assessed at both the transcriptional and the posttranslational level in confluent monolayers of fibroblasts. After 4 d of treatment with P12-3A (100 μM), mRNA levels for the major form of collagen, alpha-1 type I collagen (COL1A1), were quantified by RT-PCR and found to be increased to ~2.6 times the levels of untreated cells (Fig 4C). To assess overall levels of collagen production and secretion, we quantified levels of hydroxyproline, a modified amino acid present almost exclusively in collagen proteins. […] Western blotting also confirmed that mature, cell-associated collagen levels were increased in the presence of P12-3A (Fig 4E).
(§2) Fig 4 Effects of P12-3A on cultured skin cells. A, Insulin concentrations as a function of time in logarithmically growing primary murine skin fibroblasts in the absence or presence of P12-3A (100 μM). […] Data are mean ± SEM of 4 independent replications. *P<0.05, **P<0.01. B, Proliferation of cells in the absence or presence of P12-3A (100 μM). Data are mean ± SEM of 6 independent replications. […] C,D,E, P12-3A (100 μM) potentiates insulin-induced collagen production in skin fibroblasts. Collagen production was assessed by COL1A1 mRNA levels (C), levels of hydroxyproline secreted into the medium (D), and cell-associated mature alpha-1 type I collagen levels detected by Western blotting (E). Data are mean ± SD of 4 independent replications. *P<0.05, **P<0.01. […] Migration of HaCaT cells 48 h after induction of a scratch wound in the presence of the indicated quantities of insulin and/or P12-3A (100 μM). Data are mean ± SEM of 6 independent replications. *P<0.05, **P<0.01.
RNA was extracted from freshly lysed cells, reverse transcribed and amplified using the Ambion® Fast SYBR® Green Cells-to-CT™ Kit according to manufacturer’s recommendations (Thermo Fisher Scientific, Waltham, MA, USA). The quantitative real-time PCR reaction was conducted using a 7500 real-time PCR system and analyzed using System SDS software v2.0.5 (Applied Biosystems). Murine COL1A1 mRNA was detected using the following primers (forward: 5’-[…] and reverse: 5’ […]). Fold change differences between samples were determined using the comparative Ct (ΔΔCt) method, normalized to internal standards detected with the SYBR® Green Cells-to-CT™ Control Kit according to manufacturer’s recommendations (Thermo Fisher Scientific, Waltham, MA, USA) calculated by 2^-ΔΔCt.

[2] = test system: HaCaT cells; assay: In vitro scratch wound migration assay; assay type: cell-based; settings: for migration of keratinocytes, single replicates (average of two observers) / migration of keratinocytes, Mean: 48 hr after scratching; for migration of keratinocytes, Mean: N 6
Protocol: as §1, §2
Cell migration in HaCaT cells after induction of scratch wounds was quantified essentially as described. Briefly, HaCaT cells maintained in optimized DMEM (AddexBio Technologies, San Diego, CA, USA) supplemented with 10% FBS, penicillin and streptomycin, were grown to confluency in 24-well tissue culture plates, and scratch wounds were induced with a 200-μL pipette tip. After growth for 48 h in the absence or presence of insulin (10 nM or 100 nM) and/or P12-3A (100 μM), cell migration distance was quantified by two independent, blinded observers using a Nikon TMS inverted light microscope (Nikon Corp., Melville, NY, USA) fitted with a ruler reticle.

[3] = test system: multiple peptidases of different protease classes; assay: Activity on additional proteases, FAßB degradation assay; assay type: biochemical; set-up: concentration or dose not given beside the values; settings: for % activity relative to DMSO-only and no-enzyme controls, Mean: N 8; for % activity relative to DMSO-only and no-enzyme controls, single runs: each run mean of quadruplicates
Protocol: IDE activity was quantified by monitoring the degradation of Mca-[…](Dnp) (FRET1, 5 μM), fluoresceinated and biotinylated amyloid ß-protein (FAßB; 500 nM) or recombinant human insulin (50 nM) in PBS supplemented with 0.05% BSA. FRET1 degradation was measured by changes in fluorescence (λex = 340 nm, λem = 420 nm); FAßB degradation was monitored by fluorescence polarization (λex = 488 nm, λem = 525 nm), as described; and insulin degradation was quantified by ELISA. In vitro activity assays incorporated recombinant human IDE (1 nM) purified from bacteria. For quantitation of insulin degradation in primary murine skin fibroblasts, cells (1 x 10^5/well) were plated in 96-well plates and maintained in DMEM supplemented with 10% fetal bovine serum (FBS), 2mM glutamine, penicillin and streptomycin. After addition of insulin (10 nM or 100 nM), samples of conditioned medium were removed daily and quickly frozen, then insulin levels were quantified in parallel by ELISA according to manufacturer’s recommendations (Crystal Chem, Downers Grove, IL, USA). Assessment of the activity of P12-3A against a variety of matrix-metalloproteases was conducted using the Matrix Metalloproteinase (MMP) Inhibitor Profiling Kit, Fluorometric RED (Enzo Life Sciences, Inc., Farmingdale, NY, USA) according to manufacturer’s recommendations using the broad-spectrum MMP inhibitor, NNGH, as a positive control.
Supplementary file pone.0193101.s004.tif: S4 Fig Selectivity of P12-3A for IDE vis-à-vis other proteases. Activity of P12-3A (100 μM) against (A) multiple matrix-metalloproteases (MMPs) and (B) multiple peptidases of different protease classes. […] Data are mean ± SD, n = 8–16 per group. P<0.05 by 2-tailed Student’s t-test. […] See Materials and Methods for details. NEP, neprilysin; mCatD, murine cathepsin D; hCatD, human cathepsin D. (TIF) Click here for additional data file.

[4] = test system: cultured skin cells; assay: Toxicity in cell culture experiments; assay type: cell-based
From the text: Although a variety of potent and selective IDE inhibitors have been developed, current inhibitors are difficult to synthesize, expensive to generate and/or contain chemical moieties or constituents with established or undetermined potential for toxicity. Due to these and other considerations, existing IDE inhibitors are poorly suited for topical applications. To overcome these limitations, in the present study we aimed to develop peptidic inhibitors of IDE suitable for use in wound healing or cosmetic applications. […] To that end, we used phage display technology to select for a range of peptides that bind to IDE with strong affinity, which were then screened for resistance to degradation by IDE.

[5] = P12-3A 100 uM, individual replicates

With `CC(C)C[C@H](NC(=O)[C@H](CO)NC(=O)[C@@H](N)CCC(N)=O)C(=O)N1CCC[C@H]1C(=O)N[C@@H](Cc1c[nH]c2ccccc12)C(=O)N[C@H]1CSSC[C@@H](C(=O)N[C@H](C(=O)N[C@H](C(N)=O)[C@@H](C)O)C(C)C)NC(=O)[C@H](Cc2c[nH]cn2)NC(=O)[C@@H]2CCCN2C(=O)[C@H](Cc2ccc(O)cc2)NC1=O` [P12-3A] (H-QSLPWCYPHCVT-NH2; disulfide 6-10 (inferred)) the “COL1A1 mRNA levels” value ([1]; 100 μM P12-3A, 4 d, confluent monolayers) was ~ 2.6 times the levels of untreated cells, the “2^(-DCt), COL1A1 mRNA, Mean” value ([1]; P12-3A 100 uM, N 4) was 0.490 and the “DCt (COL1A1 mRNA vs internal standard ß-actin), Mean” value ([1]; P12-3A 100 uM, N 4) was 1.082. For the same compound, the “2^(-DCt), COL1A1 mRNA” value [1, 5] was 0.454 and 0.570 and 0.306 and 0.629, the “DCt (COL1A1 mRNA vs internal standard ß-actin)” value [1, 5] was 1.14 and 0.81 and 1.71 and 0.67 and the “COL1A1 mRNA, normalized, Mean” value ([1]; P12-3A 100 uM, normalized to control mean (1.000), N 4) was 2.644. For the same compound, the “COL1A1 mRNA, normalized” value ([1]; P12-3A 100 uM, normalized to control mean (1.000), individual replicates) was 2.451 and 3.081 and 1.651 and 3.395, the “Ct, COL1A1 mRNA, Mean” value ([1]; P12-3A 100 uM, raw Ct, N 4) was 21.783 and the “Ct, COL1A1 mRNA” value ([1]; P12-3A 100 uM, raw Ct, individual replicates) was 22.07 and 21.23 and 21.93 and 21.9. The “migration of keratinocytes, single replicates (average of two observers)” value (“migration … (average of two observers)” below) ([2]; 10 nM ins) was 10.5 mm and 10.6 mm and 10.1 mm and 8.4 mm and 4.9 mm and 12.6 mm, the “migration of keratinocytes, Mean” value ([2]; 10 nM ins) was 9.5 mm and the “migration … (average of two observers)” value ([2]; 100 nM ins) was 10.1 mm and 11.5 mm and 16.4 mm and 11.4 mm and 14.4 mm and 18.1 mm. For the same compound, the “migration of keratinocytes, Mean” value ([2]; 100 nM ins) was 13.6 mm, the migration of keratinocytes ([2]; 100 μM P12-3A, different concentrations of insulin, 48 h) was “statistically significant increases” and the “migration … (average of two observers)” value ([2]; no ins) was 5.0 mm and 5.9 mm and 3.4 mm and 8.3 mm and 3.2 mm and 4.0 mm. For the same compound, the “migration of keratinocytes, Mean” value ([2]; no ins) was 4.9 mm, the “% activity relative to DMSO-only and no-enzyme controls, Mean” value ([3]; Plasmin) was 102.2% and the “% activity relative to DMSO-only and no-enzyme controls, single runs” value ([3]; Plasmin) was 81.4012% and 90.4633% and 101.45% and 148.471% and 93.7572% and 91.0067% and 95.3568% and 115.381%. For the same compound, the “% activity relative to DMSO-only and no-enzyme controls, Mean” value ([3]; Trypsin) was 97.0%, the “% activity relative to DMSO-only and no-enzyme controls, single runs” value ([3]; Trypsin) was 89.0897% and 97.7425% and 98.0394% and 101.611% and 90.6127% and 100.837% and 98.0681% and 99.896% and the “toxicity in cell culture experiments” value [4] was “no evidence of toxicity”.
